Measurements as given in PubChem BioAssay AID488797 (The Scripps Research Institute Molecular Screening Center, 2010).
Calls of active or inactive are those of the source.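 How the source made its calls: active means half-inhibiting concentration IC50 at or below 10 µM; inactive means IC50 above 10 µM.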

These molecules were tested against Female germline-specific tumor suppressor gld-1 (Caenorhabditis elegans) (UniProt Q17339) (assay: C. elegans gld-1 RNA interaction inhibition curves – biochemical, fluorescence polarization, IC50, powder samples, late-stage follow-up (AID 488797)). Conditions: GLD-1 / FL-TGE RNA binding.
Sequence of Female germline-specific tumor suppressor gld-1 (Caenorhabditis elegans) (Q17339 whole entry, looked up): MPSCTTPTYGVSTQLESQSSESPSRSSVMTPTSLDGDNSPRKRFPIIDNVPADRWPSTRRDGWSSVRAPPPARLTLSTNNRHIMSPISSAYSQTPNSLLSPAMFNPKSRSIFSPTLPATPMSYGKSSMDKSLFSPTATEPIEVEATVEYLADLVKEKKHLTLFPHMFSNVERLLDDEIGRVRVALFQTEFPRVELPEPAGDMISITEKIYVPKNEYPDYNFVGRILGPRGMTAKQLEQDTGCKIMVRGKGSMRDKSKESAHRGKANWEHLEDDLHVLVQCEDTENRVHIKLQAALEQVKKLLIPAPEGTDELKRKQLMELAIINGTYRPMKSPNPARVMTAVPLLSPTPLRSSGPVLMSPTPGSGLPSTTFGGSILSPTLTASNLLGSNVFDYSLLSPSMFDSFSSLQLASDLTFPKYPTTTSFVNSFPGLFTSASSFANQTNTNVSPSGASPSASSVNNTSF
`CC1=CC(=O)c2c(O)ccc(O)c2C1=O` showed an IC50 of 5.67 µM. For `Nc1ccc2nonc2c1[N+](=O)[O-]`, the IC50 was > 59.6 µM (inactive). Molecule `O=C(CN1C(=O)NC2(CCCCC2)C1=O)Oc1ccc2c(C(F)(F)F)cc(=O)oc2c1` has an IC50 of 5.62 µM. Molecule `CCCCn1c(=O)[nH]c2nc3cc(NC(C)=O)ccc3nc2c1=O` has an IC50 of 2.62 µM. With `Cc1ccc(S(=O)(=O)Nc2cc3c(C(=O)Nc4ccccc4)c(C)oc3c3ccccc23)c(C)c1` the IC50 was 1.14 µM. With `CCOC(=O)c1c(C)oc2c1cc(NS(=O)(=O)c1ccc(C)cc1)c1ccccc12` the IC50 was > 59.6 µM (inactive). `O=c1[nH]c2cc3ccccc3cc2nc1C(F)(F)F` showed an IC50 of 2.5 µM. In the case of `CCN(CC)S(=O)(=O)c1ccc(N2CCCC2)c(NS(=O)(=O)c2ccc(F)cc2)c1`, the IC50 is reported as “inactive”. With `COc1ccc(C=Nc2c(-c3ccco3)nc3ccccn23)cc1OC` the IC50 was > 59.6 µM (inactive). For `Nc1c(O)ccc2c1C(=O)c1ccccc1C2=O`, the IC50 was 4.17 µM. Work on `Nc1ccc(O)c2c1C(=O)c1ccccc1C2=O` yielded an IC50 of 3 µM. `COc1ccc(/C=C(\CC(=O)O)c2nc3ccccc3s2)cc1O` gave an IC50 of 2.17 µM. `Cc1ccc(S(=O)(=O)Nc2cc3c(C(=O)Nc4ccccc4)c(C)oc3c3ccccc23)cc1` gave an IC50 of 1.66 µM. In the case of `O=c1[nH]c(=O)c2nc3ccccc3nc2[nH]1`, the IC50 is reported as “inactive”. `O=C1C2=C(SCCS2)C(=O)N1CCCO` was tested, and the IC50 was 4.73 µM.
